Values of other authors in US20090220618A1, “PHARMACEUTICAL FORMULATIONS COMPRISING POLYANIONIC MATERIALS AND SOURCE OF HYDROGEN PEROXIDE” (priority 2008, published 2009).

How the values were obtained:
[1] = at 25° C.
[2] = system: sensitive tissues of the eye

Row | Compound | pKa [1] | concentration causing apoptosis [2] | concentration causing growth arrest [2] | concentrations causing necrosis [2]
1 | CC(C)(CO)NCC(O)CS(=O)(=O)O (stereo not drawn) [AMP SO] | 9.0 | – | – | –
2 | O=S(=O)(O)CC(O)CN(CCO)CCO (stereo not drawn) [DIPSO] | 7.52 | – | – | –
3 | O=S(=O)(O)CCCCNC(CO)(CO)CO [TABS, N-tris(hydroxymethyl)methyl-4-aminobutanesulfonic acid] | 8.9 | – | – | –
4 | benzalkonium chloride [BAK] | – | 0.01% | 0.00001% | 0.05-0.1%
